Data as given in patent US8143255B2, “Heteroalkyl linked pyrimidine derivatives” (S*BIO Pte Ltd., priority 2005, dated 2012).

Tests used:
JAK2 = target: T1, JAK2 (Homo sapiens, UniProt O60674); experiment: In vitro kinase activity assay (PKLight), JAK2; format: biochemical; details: recombinant JAK2, poly(Glu,Ala,Tyr) substrate, 0.2 μM ATP
T1 construct: purchased Invitrogen PV4210
Method: (§1) All assays were carried out in 384-well white microtiter plates using the PKLight assay system from Cambrex (East rutherford, N.J.). This assay platform is essentially a luminometdc assay for the detection of ATP in the reaction using a luciferase-coupled reaction. For CDK2/Cyclin A assay, the reaction mixture consisted of the following components in 25 μL assay buffer (50 mM Hepes pH 7.5, 10 mM MgCl2, 5 mM MnCl2, 5 mM BGP, 1 mM DTT, 0.1 mM sodium orthovanadate), 1.4 μg/mL of CDK2/Cyclin A complex, 0.5 μM of RbING substrate (Invitrogen, Cat # PV2939) and 0.5 μM of ATP. The compounds were tested at 8 concentrations prepared from 4-fold serial dilution starting at 10 μM. The reaction was incubated at room temperature for 2 hr. 13 μL of PKLight ATP detection reagent was added and the reaction was incubated for 10 min. Luminescence signals were detected on a multi-label plate reader (Victor^2 V 1420, Perkin-Elmer). The other kinase assays were identical except for the following differences in reagents. For FLT3 assays, the reaction contained 2.0 μg/mL FLT3 enzyme, 5 μM of poly(Glu,Tyr) substrate (Sigma, Cat # P0275) and 4 μM of ATP. For JAK2 assays, the reaction contained 0.6 μg/mL of JAK2 enzyme, 2 μM of poly(Glu,Ala,Tyr) substrate (Sigma, Cat # P3899) and 0.2 μM of ATP. […] The analytical software, Prism 4.0 (GraphPad Software Pte Ltd) was used to generate IC50 values from the data.

FLT3 = target: T2, FLT3 (Homo sapiens, UniProt P36888); experiment: In vitro kinase activity assay (PKLight), FLT3; format: biochemical; details: recombinant FLT3, poly(Glu,Tyr) substrate, 4 μM ATP
T2 construct: purchased Invitrogen PV3182
T2 sequence (P36888 27-993): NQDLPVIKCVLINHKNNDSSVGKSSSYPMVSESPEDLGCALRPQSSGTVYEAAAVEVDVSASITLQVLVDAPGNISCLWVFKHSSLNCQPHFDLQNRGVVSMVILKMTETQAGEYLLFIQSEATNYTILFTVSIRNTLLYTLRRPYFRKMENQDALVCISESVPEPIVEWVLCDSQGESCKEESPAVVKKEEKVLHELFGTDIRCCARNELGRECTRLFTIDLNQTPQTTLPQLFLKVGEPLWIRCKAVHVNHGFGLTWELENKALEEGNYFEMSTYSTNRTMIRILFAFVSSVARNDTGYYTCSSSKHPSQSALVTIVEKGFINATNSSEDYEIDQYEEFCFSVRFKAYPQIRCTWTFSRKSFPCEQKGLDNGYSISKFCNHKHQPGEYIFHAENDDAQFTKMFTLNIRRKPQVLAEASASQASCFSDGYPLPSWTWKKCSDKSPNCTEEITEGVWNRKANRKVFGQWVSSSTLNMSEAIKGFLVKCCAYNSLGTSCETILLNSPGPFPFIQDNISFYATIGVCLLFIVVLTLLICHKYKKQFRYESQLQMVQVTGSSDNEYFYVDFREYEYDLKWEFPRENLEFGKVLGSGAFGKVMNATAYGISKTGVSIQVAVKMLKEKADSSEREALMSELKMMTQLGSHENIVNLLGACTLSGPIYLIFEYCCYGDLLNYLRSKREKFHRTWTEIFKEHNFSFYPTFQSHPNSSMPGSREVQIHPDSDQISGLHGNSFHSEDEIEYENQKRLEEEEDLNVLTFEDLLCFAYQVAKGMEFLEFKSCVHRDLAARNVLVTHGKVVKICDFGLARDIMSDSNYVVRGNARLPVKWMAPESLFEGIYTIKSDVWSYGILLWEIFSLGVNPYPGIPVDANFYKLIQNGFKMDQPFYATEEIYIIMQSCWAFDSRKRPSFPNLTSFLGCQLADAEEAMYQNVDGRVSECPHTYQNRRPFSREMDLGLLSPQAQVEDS
Method: The recombinant enzymes (CDK2/CyclinA, FLT3, JAK2 and JAK2 V617F) were purchased from Invitrogen (Cat # PV3267, 3182, 4210 and 4347 respectively). All assays were carried out in 384-well white microtiter plates using the PKLight assay system from Cambrex (East rutherford, N.J.). This assay platform is essentially a luminometdc assay for the detection of ATP in the reaction using a luciferase-coupled reaction. For CDK2/Cyclin A assay, the reaction mixture consisted of the following components in 25 μL assay buffer (50 mM Hepes pH 7.5, 10 mM MgCl2, 5 mM MnCl2, 5 mM BGP, 1 mM DTT, 0.1 mM sodium orthovanadate), 1.4 μg/mL of CDK2/Cyclin A complex, 0.5 μM of RbING substrate (Invitrogen, Cat # PV2939) and 0.5 μM of ATP. The compounds were tested at 8 concentrations prepared from 4-fold serial dilution starting at 10 μM. The reaction was incubated at room temperature for 2 hr. 13 μL of PKLight ATP detection reagent was added and the reaction was incubated for 10 min. Luminescence signals were detected on a multi-label plate reader (Victor^2 V 1420, Perkin-Elmer). The other kinase assays were identical except for the following differences in reagents. For FLT3 assays, the reaction contained 2.0 μg/mL FLT3 enzyme, 5 μM of poly(Glu,Tyr) substrate (Sigma, Cat # P0275) and 4 μM of ATP. For JAK2 assays, the reaction contained 0.6 μg/mL of JAK2 enzyme, 2 μM of poly(Glu,Ala,Tyr) substrate (Sigma, Cat # P3899) and 0.2 μM of ATP. For JAK2 V617F mutant assays, the reaction contained 8.0 μg/mL of JAK2 mutant enzyme, 2 μM of poly(Glu,Ala,Tyr) substrate (Sigma, Cat # P3899) and 0.2 μM of ATP. The analytical software, Prism 4.0 (GraphPad Software Pte Ltd) was used to generate IC50 values from the data. […] IC50 values are shown below in Table 3.

[1] = tested on: Colo205 (colon adenocarcinoma cell line); experiment: Cell-based proliferation assay, Colo205; details: Homo sapiens, COLO 205; Colo205 cells, 96 h treatment
Method: (§2) Human cancer cell lines HL60 (acute myeloid leukemia cell line), Colo205 (colon adenocarcinoma cell line), HEL92.1.7 (erythroleukemia cell line), MV4-11 (acute myeloid leukemia cell line) and DU145 (metastatic prostate cancer cell line) were obtained from ATCC. They were cultivated in the media according to the ATCC work instructions. Colo205 and DU145 cells were seeded in 96-wells plate 5000 cells per cell and 1000 cells per well respectively. HEL92.1.7 and MV4-11 cells were seeded at 6000 cells per well while HL60 cells were seeded at 8000 cells per well in 96 well plate. The plates were incubated at 37° C., 5% CO2, for 24 h. Cells were treated with compounds at various concentrations for 96 h. Cell growth was then monitored using Celltiter96 Aqueous One Solution Cell Proliferation Assay from Promega (Madison Wis.). Dose response curves were plotted to determine GI50 values for the compounds using XL-fit (ID Business Solution, Emeryville, Calif.).

[2] = tested on: DU145 (metastatic prostate cancer cell line); experiment: Cell-based proliferation assay, DU145; details: Homo sapiens, DU-145; DU145 cells, 96 h treatment
Method: as §2

[3] = tested on: HL60 (acute myeloid leukemia cell line); experiment: Cell-based proliferation assay, HL60; details: Homo sapiens, HL-60; HL60 cells, 96 h treatment
Method: as §2

[4] = tested on: MV4-11 (acute myeloid leukemia cell line); experiment: Cell-based proliferation assay, MV4-11; details: Homo sapiens; MV4-11 cells, 96 h treatment
Method: as §2

[5] = tested on: HEL92.1.7 (erythroleukemia cell line); experiment: Cell-based proliferation assay, HEL92.1.7; details: Homo sapiens, HEL 92.1.7; HEL92.1.7 cells, 96 h treatment
Method: as §2

JAK2 V617F = target: T3, JAK2 V617F (Homo sapiens, UniProt O60674, V617F); experiment: In vitro kinase activity assay (PKLight), JAK2 V617F mutant; format: biochemical; details: recombinant JAK2 V617F mutant, poly(Glu,Ala,Tyr) substrate, 0.2 μM ATP
T3 construct: purchased Invitrogen PV4347
T3 sequence (O60674 whole entry V617F): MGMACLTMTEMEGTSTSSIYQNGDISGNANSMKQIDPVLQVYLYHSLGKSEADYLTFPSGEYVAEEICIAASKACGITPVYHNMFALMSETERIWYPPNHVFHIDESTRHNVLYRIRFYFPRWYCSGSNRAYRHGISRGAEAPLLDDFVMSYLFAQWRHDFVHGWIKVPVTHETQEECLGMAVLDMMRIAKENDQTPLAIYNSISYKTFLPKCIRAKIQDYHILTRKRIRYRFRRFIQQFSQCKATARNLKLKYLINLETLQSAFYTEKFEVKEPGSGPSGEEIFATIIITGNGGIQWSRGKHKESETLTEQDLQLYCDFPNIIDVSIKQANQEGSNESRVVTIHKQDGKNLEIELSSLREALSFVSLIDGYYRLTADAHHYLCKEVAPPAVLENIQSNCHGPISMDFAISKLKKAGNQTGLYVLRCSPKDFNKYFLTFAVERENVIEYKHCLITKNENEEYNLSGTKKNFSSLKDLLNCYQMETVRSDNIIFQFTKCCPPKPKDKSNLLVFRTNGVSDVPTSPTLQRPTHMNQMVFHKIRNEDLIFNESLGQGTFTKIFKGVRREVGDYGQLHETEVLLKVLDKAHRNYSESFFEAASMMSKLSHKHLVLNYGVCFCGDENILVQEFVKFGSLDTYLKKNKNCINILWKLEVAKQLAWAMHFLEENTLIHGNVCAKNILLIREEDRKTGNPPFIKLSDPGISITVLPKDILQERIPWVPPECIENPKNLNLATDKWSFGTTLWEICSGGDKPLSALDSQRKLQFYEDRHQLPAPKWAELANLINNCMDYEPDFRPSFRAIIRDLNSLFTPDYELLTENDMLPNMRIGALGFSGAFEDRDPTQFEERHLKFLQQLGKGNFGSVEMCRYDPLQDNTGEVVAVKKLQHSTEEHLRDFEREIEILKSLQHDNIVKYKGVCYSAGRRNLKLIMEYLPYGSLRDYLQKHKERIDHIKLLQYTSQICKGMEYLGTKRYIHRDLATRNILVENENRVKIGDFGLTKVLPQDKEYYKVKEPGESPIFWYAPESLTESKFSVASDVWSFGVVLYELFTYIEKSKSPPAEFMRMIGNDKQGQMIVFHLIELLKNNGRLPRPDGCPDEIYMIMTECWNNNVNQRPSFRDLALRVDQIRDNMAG
Method: as §1

CDK2/CyclinA = target: T4, CDK2/CyclinA (Homo sapiens, UniProt P24941); experiment: In vitro kinase activity assay (PKLight), CDK2/Cyclin A; format: biochemical; details: recombinant CDK2/Cyclin A, RbING substrate, 0.5 μM ATP, 2 hr
T4 construct: purchased Invitrogen PV3267
Method: as §1

T1 sequence (O60674 whole entry): as the sequence (O60674 whole entry V617F) above, with F617V counted along it

SMILES | IC50 (JAK2) [nM] | IC50 (FLT3) [nM] | GI50 [1] [nM] | GI50 [2] [nM] | GI50 [3] [nM] | GI50 [4] [nM] | GI50 [5] [nM] | IC50 (JAK2 V617F) [nM] | IC50 (CDK2/CyclinA) [nM]
CN1C/C=C/CCOc2cccc(c2)-c2ccnc(n2)Nc2cccc(c2)C1 [Compound 1] | ≤ 1000 | ≤ 1000 | ≤ 1000 | ≤ 1000 | ≤ 1000 | ≤ 1000 | ≤ 1000 | ≤ 1000 | 
O=C1NC/C=C/COCc2cccc(c2)Nc2nccc(n2)-c2cccc1c2 [Compound 17] | ≤ 1000 | 1000 to 5000 | > 5000 | > 5000 | > 5000 | > 5000 | > 5000 | ≤ 1000 | > 5000
CCN(CC)CCOc1ccc2cc1CN(C)C/C=C/CCOc1cccc(c1)-c1ccnc(n1)N2 [Compound 32] | ≤ 1000 | ≤ 1000 | ≤ 1000 | ≤ 1000 | ≤ 1000 | ≤ 1000 | ≤ 1000 | ≤ 1000 | ≤ 1000
C1=C/CN(C2CC2)Cc2cc(ccc2OCCN2CCOCC2)Nc2nccc(n2)-c2cccc(c2)OCC/1 [Compound 36] | ≤ 1000 | ≤ 1000 | 1000 to 5000 | > 5000 | ≤ 1000 | ≤ 1000 | 1000 to 5000 | ≤ 1000 | ≤ 1000
CN1C/C=C/CCOc2cccc(c2)-c2ccnc(n2)Nc2ccc(OCCN3CCCC3)c(c2)C1 [Compound 40] | ≤ 1000 | ≤ 1000 | ≤ 1000 | ≤ 1000 | ≤ 1000 | ≤ 1000 | ≤ 1000 | ≤ 1000 | ≤ 1000
CN1C/C=C/CCOc2cc(F)cc(c2)-c2ccnc(n2)Nc2ccc(OCCN3CCCC3)c(c2)C1 [Compound 52] | ≤ 1000 | ≤ 1000 | ≤ 1000 | ≤ 1000 | ≤ 1000 | ≤ 1000 | ≤ 1000 | ≤ 1000 | ≤ 1000
